Measurements reported in publication PMC4074120, “Discovery of Novel GPVI Receptor Antagonists by Structure-Based Repurposing” (PLoS ONE, 2014).

Target: T1, GPVI (platelet glycoprotein VI) (Homo sapiens, UniProt Q9HCN6)
T1 construct: gene GP6; native receptor on washed human platelets
T1 sequence (Q9HCN6 21-339): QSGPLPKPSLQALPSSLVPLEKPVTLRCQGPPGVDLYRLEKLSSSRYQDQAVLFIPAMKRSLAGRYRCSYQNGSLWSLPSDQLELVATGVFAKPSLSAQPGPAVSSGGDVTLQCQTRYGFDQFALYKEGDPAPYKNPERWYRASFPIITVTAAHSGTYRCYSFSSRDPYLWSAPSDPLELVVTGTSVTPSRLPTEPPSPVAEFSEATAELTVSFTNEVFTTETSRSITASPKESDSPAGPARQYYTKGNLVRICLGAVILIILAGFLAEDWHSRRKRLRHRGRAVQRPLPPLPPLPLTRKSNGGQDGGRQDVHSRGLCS
Assay: Inhibition of CRP-XL/collagen-induced Ca2+ release and aggregation in washed human platelets; rightward shift of CRP-XL curve
Format: cell-based
Conditions: read-out: Ca^2+ RELEASE / CRP

Structure (SMILES): CN(C)CCCSc1ccccc1NC(=O)/C=C/c1ccccc1 [cinanserin]
- IC50: 40 µM
